Measured values from ChEMBL document CHEMBL5113392, “Novel hybrid pyrrolidinedione-thiazolidinones as potential anticancer agents: Synthesis and biological evaluation” (Eur J Med Chem, 2022).

Legend:
A549 = test: Anticancer activity against human A549 cells assessed as cell growth inhibition incubated for 72 hrs by MTT assay; assay type: functional
HeLa = test: Anticancer activity against human HeLa cells assessed as cell growth inhibition incubated for 72 hrs by MTT assay; assay type: functional
[1] = Selectivity index, ratio of GI50 for human HaCaT cells to GI50 for human HCT-116 cells; assay type: toxicity; settings: HaCaT cells versus HCT-116 cells, read-out: RatioGI50
Jurkat = test: Anticancer activity against human Jurkat cells assessed as cell growth inhibition incubated for 72 hrs by MTT assay; assay type: functional
SK-OV-3 = test: Anticancer activity against human SK-OV-3 cells assessed as cell growth inhibition incubated for 72 hrs by MTT assay; assay type: functional
U-251 = test: Anticancer activity against human U-251 cells assessed as cell growth inhibition incubated for 72 hrs by MTT assay; assay type: functional
[2] = Selectivity index, ratio of GI50 for human HaCaT cells to GI50 for human SK-OV-3 cells; assay type: toxicity; settings: HaCaT cells versus SK-OV-3 cells, read-out: RatioGI50
MDA-MB-231 = test: Anticancer activity against human MDA-MB-231 cells assessed as cell growth inhibition incubated for 72 hrs by MTT assay; assay type: functional
[3] = Selectivity index, ratio of GI50 for human HaCaT cells to GI50 for human HCT116-p53-null cells; assay type: toxicity; settings: HaCaT cells versus HCT116-p53-null cells, read-out: RatioGI50
MCF7 [4] = test: Anticancer activity against human MCF7 cells assessed as cell growth inhibition incubated for 72 hrs by MTT assay; assay type: functional
[5] = Anticancer activity against human HCT116-p53-null cells assessed as cell growth inhibition incubated for 72 hrs by MTT assay; assay type: functional
[6] = Selectivity index, ratio of GI50 for human HaCaT cells to GI50 for human MDA-MB-231 cells; assay type: toxicity; settings: HaCaT cells versus MDA-MB-231 cells, read-out: RatioGI50
LOX IMVI = test: Anticancer activity against human LOX IMVI cells assessed as inhibition of cell growth at 10 uM incubated for 48 hrs by SRB assay; assay type: functional
[7] = Selectivity index, ratio of GI50 for human HaCaT cells to GI50 for human U-251 cells; assay type: toxicity; settings: HaCaT cells versus U-251 cells, read-out: RatioGI50
MCF7 [8] = test: Anticancer activity against human MCF7 cells assessed as inhibition of cell growth at 10 uM incubated for 48 hrs by SRB assay; assay type: functional; settings: MCF7, 48 h, values are per cent of control
RPMI-8226 = test: Anticancer activity against human RPMI-8226 cells assessed as inhibition of cell growth at 10 uM incubated for 48 hrs by SRB assay; assay type: functional
HCT-116 = test: Anticancer activity against human HCT-116 cells assessed as cell growth inhibition incubated for 72 hrs by MTT assay; assay type: functional
[9] = Cytotoxicity against human HaCaT cells assessed as cell growth inhibition incubated for 72 hrs by MTT assay; assay type: toxicity, cell-based
[10] = Selectivity index, ratio of GI50 for human HaCaT cells to GI50 for human MCF7 cells; assay type: toxicity; settings: HaCaT cells versus MCF7 cells, read-out: RatioGI50
[11] = Selectivity index, ratio of GI50 for human HaCaT cells to GI50 for human HeLa cells; assay type: toxicity; settings: HaCaT cells versus HeLa cells, read-out: RatioGI50
[12] = Selectivity index, ratio of GI50 for human HaCaT cells to GI50 for human A549 cells; assay type: toxicity; settings: HaCaT cells versus A549 cells, read-out: RatioGI50
[13] = Selectivity index, ratio of GI50 for human HaCaT cells to GI50 for human Jurkat cells; assay type: toxicity; settings: HaCaT cells versus Jurkat cells, read-out: RatioGI50
UO-31 = test: Anticancer activity against human UO-31 cells assessed as inhibition of cell growth at 10 uM incubated for 48 hrs by SRB assay; assay type: functional; settings: UO-31, 48 h, values are per cent of control
MDA-MB-435 = test: Anticancer activity against human MDA-MB-435 cells assessed as inhibition of cell growth at 10 uM incubated for 48 hrs by SRB assay; assay type: functional
[14] = Selectivity index, ratio of GI50 for human HaCaT cells to GI50 for human KB 3-1 cells; assay type: toxicity; settings: HaCaT cells versus KB 3-1 cells, read-out: RatioGI50
[15] = Cytotoxicity against mitogen activated human peripheral blood lymphocytes assessed as cell growth inhibition incubated for 48 hrs by MTT assay; assay type: toxicity, cell-based, Lymphocyte
[16] = Cytotoxicity against mitogen activated human peripheral blood lymphocytes assessed as cell growth inhibition incubated for 24 hrs by MTT assay; assay type: toxicity, cell-based, Lymphocyte
CAKI-1 = test: Anticancer activity against human CAKI-1 cells assessed as inhibition of cell growth at 10 uM incubated for 48 hrs by SRB assay; assay type: functional; settings: CAKI-1, 48 h, values are per cent of control
KB 3-1 = test: Anticancer activity against human KB 3-1 cells assessed as cell growth inhibition incubated for 72 hrs by MTT assay; assay type: functional
UACC-62 = test: Anticancer activity against human UACC-62 cells assessed as inhibition of cell growth at 10 uM incubated for 48 hrs by SRB assay; assay type: functional
MOLT-4 = test: Anticancer activity against human MOLT-4 cells assessed as inhibition of cell growth at 10 uM incubated for 48 hrs by SRB assay; assay type: functional
Salmon testes DNA = test: Displacement of methyl green from salmon sperm DNA at 10 uM measured after 2 hrs by fluorescence plate reader method relative to control; assay type: nucleic-acid assay; settings: Salmo salar

| SMILES | GI50 (A549) | GI50 (HeLa) | selectivity ratio [1] | GI50 (Jurkat) | GI50 (SK-OV-3) | GI50 (U-251) | selectivity ratio [2] | GI50 (MDA-MB-231) | selectivity ratio [3] | GI50 (MCF7 [4]) | GI50 [5] | selectivity ratio [6] | selectivity ratio [7] | GI50 (HCT-116) | GI50 at 72 h [9] | selectivity ratio [10] | selectivity ratio [11] | selectivity ratio [12] | selectivity ratio [13] | other results |
| --- | --- | --- | --- | --- | --- | --- | --- | --- | --- | --- | --- | --- | --- | --- | --- | --- | --- | --- | --- | --- |
| O=C1Nc2ccccc2/C1=C1/SC(=S)N(C2CC(=O)N(c3ccc(Br)cc3)C2=O)C1=O (stereo not given) | > 100 µM | > 100 µM | 1 | 21.5 µM | > 100 µM | > 100 µM | 1 | > 100 µM | 1 | > 100 µM | > 100 µM | 1 | 1 | > 100 µM | > 100 µM | 1 | 1 | 1 | 4.65 | inhibition at 10 µM (LOX IMVI): 33.8%; growth, % of control at 10 µM (MCF7 [8]): 45.7%; inhibition at 10 µM (RPMI-8226): 50% |
| O=C1Nc2ccccc2/C1=C1/SC(=S)N(C2CC(=O)N(c3ccc(Cl)cc3)C2=O)C1=O (stereo not given) | > 100 µM | > 100 µM | 1 | 49.9 µM | > 100 µM | > 100 µM | 1 | > 100 µM | 1 | > 100 µM | > 100 µM | 1 | 1 | > 100 µM | > 100 µM | 1 | 1 | 1 | 2 | growth, % of control at 10 µM (UO-31): 68.5%; inhibition at 10 µM (RPMI-8226): 36.3% |
| C=CCOc1ccccc1/C=C1\SC(=S)N(C2CC(=O)N(c3ccc(Cl)cc3)C2=O)C1=O (stereo not given) | > 100 µM | 47.5 µM | 1.75 | 53.3 µM | > 100 µM | 91.2 µM | 1 | 98.6 µM | 10.4 | 80.3 µM | 9.6 µM | 1.01 | 1.1 | 57.1 µM | > 100 µM | 1.25 | 2.1 | 1 | 1.88 | inhibition at 10 µM (MDA-MB-435): 68.2%; selectivity ratio [14]: 1; GI50 at 48 h [15]: > 100 µM; GI50 at 24 h [16]: > 100 µM; growth, % of control at 10 µM (CAKI-1): 72.2%; GI50 (KB 3-1): > 100 µM |
| O=C1CC(N2C(=O)CSC2=S)C(=O)N1c1ccc(O)cc1 (stereo not given) | > 100 µM | > 100 µM | 1 | 23.4 µM | 60.8 µM | > 100 µM | 1.64 | > 100 µM | 1 | > 100 µM | > 100 µM | 1 | 1 | > 100 µM | > 100 µM | 1 | 1 | 1 | 4.27 |  |
| O=C1Nc2ccc(Cl)cc2/C1=C1/SC(=S)N(C2CC(=O)N(c3ccc(Cl)cc3)C2=O)C1=O (stereo not given) | > 100 µM | 58 µM | 1 | 6.1 µM | > 100 µM | > 100 µM | 1 | > 100 µM | 1 | > 100 µM | > 100 µM | 1 | 1 | > 100 µM | > 100 µM | 1 | 1.72 | 1 | 16.4 |  |
| O=C1CC(N2C(=O)CSC2=S)C(=O)N1c1ccc(Cl)cc1 (stereo not given) | > 100 µM | > 100 µM | 0.98 | 88.4 µM | > 100 µM | > 100 µM | 0.98 | > 100 µM | 0.98 | > 100 µM | > 100 µM | 0.98 | 0.98 | > 100 µM | 97.7 µM | 0.98 | 1 | 0.98 | 1.1 | growth, % of control at 10 µM (UO-31): 76.3% |
| C=CCOc1cccc(/C=C2\SC(=S)N(C3CC(=O)N(c4ccc(Cl)cc4)C3=O)C2=O)c1 (stereo not given) | > 100 µM | > 100 µM | 1 | 74 µM | > 100 µM | > 100 µM | 1 | > 100 µM | 1 | 98 µM | > 100 µM | 1 | 1 | > 100 µM | > 100 µM | 1.02 | 1 | 1 | 1.35 | inhibition at 10 µM (LOX IMVI): 14.2% |
| CCN(CC)c1ccc(/C=C2\SC(=S)N(C3CC(=O)N(c4ccc(Cl)cc4)C3=O)C2=O)cc1 (stereo not given) |  |  |  |  |  |  |  |  |  |  |  |  |  |  |  |  |  |  |  | inhibition at 10 µM (UACC-62): 73.3%; inhibition at 10 µM (MOLT-4): 76% |
| C=CCOc1cccc(/C=C2\SC(=S)N(C3CC(=O)N(c4ccc(Br)cc4)C3=O)C2=O)c1 (stereo not given) |  |  |  |  |  |  |  |  |  |  |  |  |  |  |  |  |  |  |  | inhibition at 10 µM (UACC-62): 86.8% |
| CC[n+]1c(-c2ccccc2)c2cc(N)ccc2c2ccc(N)cc21 |  |  |  |  |  |  |  |  |  |  |  |  |  |  |  |  |  |  |  | Activity (Salmon testes DNA): 84.1% |
